Source: article PMC12004451, “Characterization of the Two-Domain Peptide Binding Mechanism of the Human CGRP Receptor for CGRP and the Ultrahigh Affinity ssCGRP Variant” (Biochemistry, 2025)
Ends that are not written are not given here.

Key:
[1] = cited from earlier work
Excerpt: Our analysis of the ssCGRP agonist and its truncated antagonist forms advance our understanding of their potential as long-acting therapeutics. It is widely accepted that long residence time is a desirable property of drugs.[61],[62] This is particularly true for antagonists, but there can also be value in long residence time GPCR agonists.[63],[64] […] The ssCGRP(8-37) antagonist has a CGRPR residence-time longer than the plasma half-life and the ssCGRP agonist can signal for longer than t ...

[2] = test system: CGRPR (CLR:RAMP1) in COS-7 cells; experiment: CAMYEL cAMP biosensor competition assay with N-terminal TMD-binding agonist AM(13-36); assay type: cell-based, human; settings: 30 μM, end point cAMP biosensor assay
Description: COS-7 cells were seeded in a 96-well white plate (Corning; Costar 3917) with a density of 20,000 cell/well, 100 μL/well, and incubated at 37 °C and 5% CO2 for 24 h. Cells were transiently transfected with 250 ng DNA total with 25 ng CLR, 25 ng RAMP, 125 ng CAMYEL biosensor, 75 ng empty pcDNA3.1(+) vector, and 375 ng branched PEI per well. Transfected cells were incubated at 37 °C and 5% CO2. […] The preincubation was followed by addition of coelenterazine h (10 μM) and simultaneous addition of 30 μM AM(13-36) agonist and antagonist as indicated, and incubated for 1 h at room temperature in total volume of 50 μL. Emissions at 475 and 535 nm were read in a PHERAstar FS plate reader (BMG Labtech, Ortenberg, Germany). The buffer control (no ligand) was subtracted from each data set and plotted with the corresponding 475/535 BRET ratio in GraphPad Prism.

[3] = test system: calcitonin receptor (CTR) ECD; settings: cited from earlier work
Excerpt: Similar to ssCGRP, the C-terminal segment of sCT has increased affinity for the receptor ECD, bein ...

## CC(C)C[C@H](NC(=O)CNC(=O)[C@H](C)NC(=O)[C@H](CC(C)C)NC(=O)[C@H](CCCNC(=N)N)NC(=O)[C@H](Cc1cnc[nH]1)NC(=O)[C@@H](NC(=O)[C@@H](NC(=O)[C@@H]1CSSC[C@H](NC(=O)[C@H](C)N)C(=O)N[C@@H](CC(=O)O)C(=O)N[C@@H]([C@@H](C)O)C(=O)N[C@@H](C)C(=O)N[C@@H]([C@@H](C)O)C(=O)N1)C(C)C)[C@@H](C)O)C(=O)N[C@@H](CC(C)C)C(=O)N[C@@H](CO)C(=O)N[C@@H](CCCNC(=N)N)C(=O)N[C@@H](CO)C(=O)NCC(=O)NCC(=O)N[C@H](C(=O)N[C@H](C(=O)N[C@@H](CCCCN)C(=O)N[C@@H](CC(N)=O)C(=O)N[C@@H](CC(N)=O)C(=O)N[C@@H](Cc1ccccc1)C(=O)N[C@H](C(=O)N1CCC[C@H]1C(=O)N[C@H](C(=O)N[C@@H](CC(N)=O)C(=O)N[C@H](C(=O)NCC(=O)N[C@@H](CO)C(=O)N[C@@H](CCCCN)C(=O)N[C@@H](C)C(=O)N[C@@H](Cc1ccccc1)C(N)=O)C(C)C)[C@@H](C)O)C(C)C)C(C)C)C(C)C [CGRP(1-37), αCGRP(1-37)]
[1]
  plasma half-life: ~20 min

## AM(13-36): C-terminally truncated adrenomedullin agonist comprising the TMD-binding portion (SFGCRFGTCTVQKLAHQIYQFTDK; ends and bridges not checked; cysteine pairing not given here; UniProt P35318 107-130, looked up, fragment)
[2]
  agonism of the CGRPR (cAMP): agonism

## Salmon calcitonin [sCT]
[3]
  higher affinity of C-terminal segment for receptor ECD than hCT: ~50 fold
